Experimental data published in patent US8148371B2, “Adenine compound and use thereof” (Dainippon Sumitomo Pharma Co., Ltd., priority 2002, dated 2012).
Where two headings read alike, the source gives them in different places. Marks after values point to notes of the source that are not given here.

Key:
[1] = tested on: plasma esterase; conditions: rat plasma, 37° C., 15 minutes
Protocol: The compound of the present invention is added to the serum solution, and the mixture is incubated at 37±0.5° C. for 5 minutes to 2 hours. By quantitatively analyzing at the definite interval the amount of the compound of the present invention remaining in the serum solution with HPLC (high performance liquid chromatography), etc., the constant of quenching velocity calculated and the half life is calculated.
The serum herein means the supernatant fraction obtained by excluding hemocytes and blood coagulation factor from blood by centrifugation, etc. The serum diluted with buffer, etc. can be used.
The metabolic stability of the test compound was presented by the residual amount (%) per the concentration of pre-metabolization.

[2] = tested on: cells of mouse spleen; assay: cells; type: cell-based, C3H/HeJ mouse; conditions: Mus musculus, 24 h, read-out: Minimum effective concentration (interferon inducing activity)
[3] = Metabolic stability on liver S9 of rat; conditions: 37° C.
Protocol: The compound of the present invention is added to liver S9 solution, and the mixture is incubated at 37±0.5° C. for 5 minutes to 2 hours. By quantitatively analyzing at the definite interval the amount of the compound of the present invention remaining in the liver S9 solution with HPLC (high performance liquid chromatography), etc., the constant of quenching velocity is calculated and the half life is calculated.
The reaction on river S9 of a rat was carried out on a 96-well plate by using a robot for screening by Tecan Company. S9 solution was prepared by adding to 10 ml of liver S9 of a rat, 20 ml of 250 mM Kpi (pH 7.4) and 20 ml of deionized water. Cofactor solution was prepared by dissolving NADPH (220 mg) in deionized water (40.5 ml) to give finally a 6 mM solution. IS (Internal Standard) solution was prepared by adding 300 μL of IS solution (1 mM DMSO solution) to 30 ml of acetonitrile solution (100 times dilution). The test compound (1 μM DMSO solution) was dissolved in an incubator at 37° C., 35 μL of it was poured into each well of a 96-well plate (24 samples/plate and then, plates (a sample plate, a 96 well-plate for dilution, deep well plates for reaction and recovering, a plate for extraction of the solid phase) and the test samples (S9 solution, Cofactor solution, IS (Internal Standard) solution, Stop solution, acetonitrile for elution) were set to the specified position in the booth of the robot. The reaction started (the concentration of the test compound was 1 μM) and the mixture was incubated at 37° C. under stirring. The solid phase was extracted and at the same time the internal standard for analysis was added. To the recovered sample (200 μL/well) was added 50 μL of acetonitrile per each well and to 2 plates of FALCON Deep well were poured 100 μL of the solution per well. By subjecting to the LC/MS analysis, the chromatogram of the test sample and the internal standard were described and the peak area was calculated. And then, the stability (residual rate after reaction) was calculated by the internal standard method.

[4] = tested on: cells of rat spleen; assay: cells; type: cell-based, SD rat; conditions: for minimal effective concentration: 24 h, read-out: Minimum effective concentration (interferon inducing activity)
[5] = rat liver S9, test compound 1 μM
[6] = rat liver S9, test compound 10 μM (*)

| Structure (SMILES) | Residual rate ([1]; test compound 10 μM) [%] | Residual rate [3, 5] [%] | Residual rate ([1]; test compound 1 μM (*)) | minimal effective concentration [4] [µM] | also measured |
| --- | --- | --- | --- | --- | --- |
| CCCCOc1nc(N)c2nc(O)n(Cc3ccc(C(=O)OCc4cccnc4)cc3)c2n1 [Example 13, 2-Butoxy-8-hydroxy-9-{4-(3-pyridylmethoxycarbonyl)benzyl}adenine] | 10 | – | – | – | – |
| Cc1ccc(Cn2c(O)nc3c(N)nc(NCCO)nc32)cn1 [Comparative example 10, 8-Hydroxy-2-(2-hydroxyethylamino)-9-{(6-methyl-3-pyridyl)methyl}adenine, reference compound] | – | – | – | – | minimal effective concentration [2]: 1 µM |
| COC(=O)CNc1nc(N)c2nc(O)n(Cc3ccccc3)c2n1 [Example 31, 9-Benzyl-8-hydroxy-2-methoxycarbonylmethylaminoadenine] | 0 | 3 | – | – | – |
| COC(=O)CCc1nc(N)c2nc(O)n(Cc3ccccc3)c2n1 [Example 61, 9-Benzyl-8-hydroxy-2-(2-methoxycarbonylethyl)adenine] | – | 0 | 0* % | 0.003 | – |
| CCCCOc1nc(N)c2nc(O)n(Cc3cccc(C(=O)OCCN4CCOCC4)c3)c2n1 [Example 8, 2-Butoxy-8-hydroxy-9-{3-(2-morpholinoethoxycarbonyl)benzyl}adenine] | 16 | 1 | – | – | – |
| CCC(=O)OCCOc1nc(N)c2nc(O)n(Cc3ccc(C)nc3)c2n1 [Example 37, 8-Hydroxy-9-(6-methyl-3-pyridyl)methyl-2-{2-(propionyloxy)ethoxy}adenine] | 0 | – | – | – | – |
| CCCCOc1nc(N)c2nc(O)n(Cc3cccc(C(=O)OCC)c3)c2n1 [Example 2, 2-Butoxy-8-hydroxy-9-(3-ethoxycarbonylbenzyl)adenine] | 5 | 11 | – | 0.001 | – |
| COC(=O)c1cccc(CSc2nc(N)c3nc(O)n(Cc4ccccc4)c3n2)c1 [Example 103, 9-Benzyl-8-hydroxy-2-[(3-methoxycarbonylbenzyl)thio]adenine] | – | 7 | 6* % | 0.01 | – |
| CCOC(=O)CCCSc1nc(N)c2nc(O)n(Cc3ccccc3)c2n1 [Example 56, 9-Benzyl-2-(3-ethoxycarbonylpropyl)thio-8-hydroxyadenine] | 0 | 1 | – | – | – |
| Nc1nc(SCC(=O)OCCF)nc2c1nc(O)n2Cc1ccccc1 [Example 46, 9-Benzyl-2-(2-fluoroethoxycarbonylmetyl)thio-8-hydroxyadenine] | 0 | 0 | – | – | – |
| CC(C)(C)OC(=O)CSc1nc(N)c2nc(O)n(Cc3ccccc3)c2n1 [Example 43, 9-Benzyl-2-(t-butoxycarbonylmethyl)thio-8-hydroxyadenine] | 0 | 2 | – | – | – |
| CCCCOc1nc(N)c2nc(O)n(Cc3cccc(C(=O)OCC(F)(F)F)c3)c2n1 [Example 4, 2-Butoxy-8-hydroxy-9-{3-(2,2,2-trifluorroethoxycarbonyl)benzyl}adenine] | 23 | 25 | – | – | – |
| CCCCOc1nc(N)c2[nH]c(=O)n(Cc3ccc(C(=O)OC)cc3)c2n1 [Example 11, 2-Butoxy-8-hydroxy-9-(4-methoxycarbonylbenzyl)adenine] | 13 | – | – | – | – |
| CCCCOc1nc(N)c2nc(O)n(Cc3cccc(C(=O)OCCOCc4ccccc4)c3)c2n1 [Example 5, 2-Butoxy-8-hydroxy-9-{3-(2-benzyloxyethoxycarbonyl)benzyl}adenine] | 18 | – | – | – | – |
| CCCCOc1nc(N)c2nc(O)n(Cc3cccc(C(=O)OCc4cccnc4)c3)c2n1 [Example 9, 2-Butoxy-8-hydroxy-9-{3-(3-pyridylmethoxycarbonyl)benzyl}adenine] | 1 | – | – | – | – |
| CCCCOc1nc(N)c2nc(O)n(Cc3ccc(CC(=O)SC)cc3)c2n1 [Example 74, 2-Butoxy-8-hydroxy-9-{4-(S-methylthiocarbonyl)methylbenzyl}adenine] | – | 7 | 0* % | 0.001 | – |
| C=CCOC(=O)CSc1nc(N)c2nc(O)n(Cc3ccccc3)c2n1 [Example 44, 2-(Allyloxycarbonylmethyl)thio-9-benzyl-8-hydroxyadenine] | 0 | 0 | – | – | – |
| CCCCOc1nc(N)c2nc(O)n(Cc3cccc(C(=O)OC(C)C)c3)c2n1 [Example 3, 2-Butoxy-8-hydroxy-9-(3-isopropoxycarbonylbenzyl)adenine] | 20 | 19 | – | – | – |
| CCCCOc1nc(N)c2nc(O)n(Cc3ccc(OCC(=O)OC)cc3)c2n1 [Example 22, 2-Butoxy-8-hydroxy-9-(4-methoxycarbonylmethoxybenzyl)adenine] | 0 | 31 | – | – | – |
| Cc1ccc(Cn2c(O)nc3c(N)nc(OCCO)nc32)cn1 [Comparative example 11, 8-Hydroxy-2-(2-hydroxyethoxy)-9-{(6-methyl-3-pyridyl)methyl}adenine, reference compound] | – | – | – | – | minimal effective concentration [2]: 0.1 µM |

| Structure (SMILES) | Residual rate ([1]; test compound 10 μM) [%] | Residual rate [3, 5] [%] | Residual rate ([1]; test compound 1 μM (*)) | minimal effective concentration [4] [µM] | also measured |
| --- | --- | --- | --- | --- | --- |
| Nc1nc(SCC(=O)OCc2ccccc2)nc2c1nc(O)n2Cc1ccccc1 [Example 45, 2-(Benzyloxycarbonylmethyl)thio-9-benzyl-8-hydroxyadenine] | 0 | – | – | – | Residual rate [3, 6]: 8* % |
| CCCCOc1nc(N)c2nc(O)n(Cc3ccc(CC(=O)OCC)cc3)c2n1 [Example 68, 2-Butoxy-8-hydroxy-9-(4-ethoxycarbonylmethylbenzyl)adenine] | – | 13 | 0* % | 0.0003 | – |
| CCOC(=O)CSc1nc(N)c2nc(O)n(Cc3ccccc3)c2n1 [Example 41, 9-Benzyl-2-(ethoxycarbonylmethyl)thio-8-hydroxyadenine] | 0 | – | – | – | Residual rate [3, 6]: 2* % |
| Nc1nc(SCC(=O)OCC(F)F)nc2c1nc(O)n2Cc1ccccc1 [Example 47, 9-Benzyl-2-(2,2-difluoroethoxycarbonylmetyl)thio-8-hydroxyadenine] | 0 | 0 | – | – | – |
| CCCCOc1nc(N)c2nc(O)n(Cc3ccc(C(=O)OC(C)C)cc3)c2n1 [Example 12, 2-Butoxy-8-hydroxy-9-(4-isopropoxycarbonylbenzyl)adenine] | 29 | – | – | – | – |
| CCCCOc1nc(N)c2nc(O)n(Cc3cccc(CC(=O)OCCF)c3)c2n1 [Example 70, 2-Butoxy-8-hydroxy-9-{3-(2-fluoroethoxycarbonyl)methylbenzyl}adenine] | – | 16 | 0* % | 0.001 | – |
| CCCCOc1nc(N)c2[nH]c(=O)n(Cc3cccc(CC(=O)OCC)c3)c2n1 [Example 80, 2-Butoxy-9-(3-ethoxycarbonylmethylbenzyl)-8-hydroxyadenine] | – | 0 | 0* % | 0.001 | – |
| CCCCOc1nc(N)c2nc(O)n(Cc3ccc(CC(=O)OCCO)cc3)c2n1 [Example 71, 2-Butoxy-8-hydroxy-9-{4-(2-hydroxyethoxycarbonyl)methylbenzyl}adenine] | – | 0 | 0* % | 0.0003 | – |
| CCOC(=O)CCc1nc(N)c2nc(O)n(Cc3ccccc3)c2n1 [Example 62, 9-Benzyl-2-ethoxycarbonylethyl-8-hydroxy adenine] | – | – | 0* % | – | Minimum effective concentration (interferon inducing activity) [4]: 30 nM |
| CCOC(=O)CCSc1nc(N)c2nc(O)n(Cc3ccccc3)c2n1 [Example 55, 9-Benzyl-2-(2-ethoxycarbonylethyl)thio-8-hydroxyadenine] | 0 | – | – | – | Residual rate [3, 6]: 4* % |
| CSC(=O)CCc1nc(N)c2nc(O)n(Cc3ccccc3)c2n1 [Example 63] | – | 0 | – | – | Minimum effective concentration (interferon inducing activity) [4]: 100 nM |
| CCCCOc1nc(N)c2nc(O)n(Cc3ccc(CC(=O)OCCN4CCOCC4)cc3)c2n1 [Example 73, 2-Butoxy-8-hydroxy-9-{4-(2-morpholinoethoxycarbonyl)methylbenzyl}adenine] | – | 0 | 4* % | 0.0003 | – |
| COCCOC(=O)CSc1nc(N)c2nc(O)n(Cc3ccccc3)c2n1 [Example 49, 9-Benzyl-8-hydroxy-2-(2-methoxyethoxycarbonylmethyl)thioadenine] | 0 | 0 | – | – | – |
| CCOC(=O)COc1nc(N)c2nc(O)n(Cc3ccccc3)c2n1 [Example 65, 9-Benzyl-2-ethoxycarbonylmethoxy-8-hydroxyadenine] | – | – | 0* % | 0.03 | – |
| COC(=O)COc1nc(N)c2nc(O)n(Cc3ccccc3)c2n1 [Example 64, 9-Benzyl-8-hydroxy-2-methoxycarbonylmethoxyadenine] | – | 2 | 0* % | 0.003 | – |
| CCCCNc1nc(N)c2nc(O)n(Cc3ccc(C(=O)OC)cc3)c2n1 [Example 27, 2-Butylamino-8-hydroxy-9-(4-methoxycarbonylbenzyl)adenine] | 0 | – | – | – | – |
| CCCCCCCCOC(=O)CSc1nc(N)c2nc(O)n(Cc3ccccc3)c2n1 [Example 42, 9-Benzyl-8-hydroxy-2-(octyloxycarbonylmethyl)thioadenine] | 0 | 3 | – | – | – |
| CCCCOc1nc(N)c2nc(O)n(Cc3ccc(CC(=O)SCC)cc3)c2n1 [Example 75, 2-Butoxy-9-{4-(S-ethylthiocarbonyl)methylbenzyl}-8-hydroxyadenine] | – | – | 0* % | 0.003 | – |
| CCCCOc1nc(N)c2nc(O)n(Cc3ccc(C(=O)OC(C)C)nc3)c2n1 [Example 18, 2-Butoxy-8-hydroxy-9-{(6-isopropoxycarbonyl-3-pyridyl)methyl}adenine] | 0 | – | – | – | – |
| CCCCOc1nc(N)c2nc(O)n(Cc3ccc(C(=O)OC)nc3)c2n1 [Example 17, 2-Butoxy-8-hydroxy-9-{(6-methoxycarbonyl-3-pyridyl)methyl}adenine] | 0 | 28 | – | 0.001 | – |
